Paper PMC12196007 (Molecules, 2025)
Several values for one entry are separate records, joined by “and”; a condition that tells them apart may be missing. Identical values can stand only once. Like-named read-outs stand apart in the source and are kept apart here.

Assays:
[1] = Stability of CUR sample solutions at room temperature (HPLC method validation); assay type: physicochemical; settings: 0-20 h
Description: 2.4 Precision and Stability […]
was diluted to three concentration levels: low (1 μg·mL-1), medium (10 μg·mL-1), and […]
content was measured by HPLC in triplicate to assess intraday precision. The same samples were analyzed once daily for five consecutive days to assess interday […]
temperature. Samples were collected at 0, 4, 8, 12, and 20 hours and analyzed by […]
for low, medium, and high concentrations, respectively. The interday RSD values were 1.97%, 2.00%, and 1.94%, indicating good method precision. Stability results […]
temperature for up to 20 hours. […]

[2] = In vivo pharmacokinetic study, oral gavage; set-up: species or system SD rats
Description: The analysis was performed on a Q Exactive™ hybrid quadrupole-Orbitrap™ mass spectrometer (Thermo Fisher Scientific, USA) with the following parameters: Chromatographic separation was achieved by Agilent ZORBAX SB-C18 column (150 mm × 4.6 mm, 5 μm) with a mobile phase of acetonitrile and 0.1% formic acid aqueous solution (48:52, v/v) at a flow rate of 1 mL·min^−1 while maintaining the column temperature at 30 °C. The mass spectrometer operated in positive ion mode with an electrospray ionization (ESI) source, employing multiple reaction monitoring (MRM) for detection. Key ionization parameters included a capillary voltage of 3.0 kV and nitrogen as the collision gas.
Twelve SD rats (220 ± 20 g, equal numbers of males and females) were fasted for 24 h with free access to water and randomly allocated into two groups (n = 6 per group). […] Blood samples (~0.5 mL) were collected from the jugular vein into anticoagulant tubes at 0, 0.25, 0.5, 1, 2, 4, 6, 8, 12, and 24 h after administration. After centrifugation to collect the supernatant, samples were spiked with 20 μL of a 100 μg·mL^−1 internal standard solution, extracted twice with ethyl acetate for protein precipitation, and the combined organic phases were evaporated using a refrigerated vacuum concentrator.

[3] = 2 h incubation of CUR solutions with intestinal segments (residual CUR); assay type: in vitro ADME, rats
Caco-2 cells = assay: Cellular uptake in Caco-2 cell monolayer; assay type: in vitro ADME, human; settings: Caco-2, 200 μg·mL−1 CUR, 20 min
Description: Caco-2 cells were seeded into the donor chamber of Transwell inserts at a density of 1 × 10^5 cell·mL^−1 and cultured in complete medium. Transepithelial electrical resistance (TEER) was measured on the 0th, 3rd, 5th, 7th, 10th, and 15th days to monitor monolayer integrity. A TEER value exceeding 700 Ω·cm² was established as the threshold for successful formation of the human intestinal epithelial barrier model. Following model validation, the cell surface was equilibrated with PBS for 30 min and rinsed to remove debris. […] Cellular uptake was terminated by rapid washing with ice-cold PBS to remove surface-bound drug and nonviable cells. […] Cellular uptake was calculated according to Equation (4).
The established Caco-2 cell monolayer model imitating human intestinal epithelium was equilibrated in pH 7.4 PBS at 37 °C within a CO2 incubator for 30 min. After removal of PBS, the cell surface was rinsed three times. […] The uptake process was terminated by ice-cold PBS, and residual solutions were removed by washing. Cells were then scraped into centrifuge tubes, sonicated, and quantified for uptake measurements.

[4] = In vitro drug release (dialysis bag, PBS); assay type: physicochemical
Description: The release media were designed to simulate physiological conditions of the human gastrointestinal tract: pH 2.0 (simulated gastric fluid), pH 6.8 (simulated intestinal fluid), and pH 7.4 (to mimic the alkaline colonic terminus). […] Aliquots (0.5 mL) were collected at predetermined intervals (0.5, 1, 2, 4, 6, 8, 12, and 24 h), with the release medium replenished immediately after each sampling to maintain sink conditions. The experiment was repeated three times. The drug release was quantified using a validated HPLC method. Cumulative release percentages were plotted against time, and release kinetics were analyzed using four models: zero-order kinetics, first-order kinetics, Higuchi equation, and Weibull distribution function. Key parameters, including T50 (time required for 50% drug dissolution) and Td (time required for 63.2% drug dissolution), were calculated to evaluate pH-dependent release profiles.

[5] = In situ single-pass intestinal perfusion; assay type: in vivo, Sprague–Dawley (SD) rats; settings: for Papp: both sexes, Sprague-Dawley, rat, other: in situ single-pass intestinal perfusion, read-out: Peff (effective permeability coefficient)
Description: The rats were anesthetized and secured in a supine position on a surgical platform maintained at 37 °C. […] A 10 cm intestinal segment was isolated, and incisions were made at both ends. Silicone tubes were inserted into the incisions and ligated. […] Subsequently, the test sample was perfused through the intestinal loop. […] The collected samples were centrifuged, and the supernatant was mixed with methanol to precipitate proteins. After a second centrifugation, the resulting supernatant was analyzed by HPLC.

[6] = cited from earlier work
[7] = both sexes, Sprague-Dawley, rat, plasma, po, 50 mg/kg

Stability: RSD of CUR concentration ([1]; CUR solution for intestinal mucus penetration study, 10 μg·mL-1, room temperature): 0.28%
Stability: RSD of CUR concentration ([1]; CUR solution for release studies, 50 μg·mL-1, room temperature): 0.63%
AUC(0-inf) [2, 7]: 144 ± 25.4 ng·h/mL
AUC(0-t) [2, 7]: 106 ± 21.8 ng·h/mL
Cmax [2, 7]: 64.9 ± 12 ng/mL
Tmax [2, 7]: 1 h
half-life [2, 7]: 3.97 ± 1.48 h
MRT last ([2]; both sexes, Sprague-Dawley, rat, plasma, po, 50 mg/kg, read-out: MRT0-t): 2.35 ± 0.67 h
MRT inf ([2]; both sexes, Sprague-Dawley, rat, plasma, po, 50 mg/kg, read-out: MRT0-∞): 5.13 ± 1.36 h
Time within which almost completely eliminated ([2]; rats, oral, 50 mg·kg−1): ≤ 4 h
Residual CUR percentage ([3]; colonic segment): 92.90 ± 0.96%
Residual CUR percentage ([3]; duodenal segment): 99.63 ± 0.34%
Residual CUR percentage ([3]; ileal segment): 94.41 ± 1.57%
Residual CUR percentage ([3]; jejunal segment): 95.63 ± 0.47%
Drug Intake, mean (x¯) (Caco-2 cells; n = 3): 43.82 ± 1.74 µg/mg
Cumulative release of CUR at 4 h ([4]; 4 h): ~80%
Cumulative release rate at 24 h ([4]; pH 2.0, 24 h): 88.89%
Cumulative release rate at 24 h ([4]; pH 6.8, 24 h): 90.17%
Cumulative release rate at 24 h ([4]; pH 7.4, 24 h): 86.64%
Papp ([5]; colon): 8.3 ± 0.1 ×10⁻⁶ cm/s
Papp ([5]; duodenum): 27.2 ± 0.5 ×10⁻⁶ cm/s
Papp ([5]; ileum): 23.3 ± 1.1 ×10⁻⁶ cm/s
Papp ([5]; jejunum): 26.1 ± 3.7 ×10⁻⁶ cm/s
Ka (absorption rate constant) ([5]; colon): 0.29 ± 0.0095 min⁻¹
Remaining dosage ([5]; colon, 15 min): 97.47 ± 0.83%
Remaining dosage ([5]; colon, 30 min): 92.6 ± 1.04%
Remaining dosage ([5]; colon, 45 min): 87.97 ± 1.07%
Remaining dosage ([5]; colon, 60 min): 79.51 ± 3.48%
Remaining dosage ([5]; colon, 75 min): 78.03 ± 0.99%
Remaining dosage ([5]; colon, 90 min): 73.23 ± 0.45%
Remaining dosage ([5]; colon, 105 min): 70.98 ± 0.98%
Remaining dosage ([5]; colon, 120 min): 66.55 ± 1.07%
Ka (absorption rate constant) ([5]; duodenum): 0.52 ± 0.0048 min⁻¹
Remaining dosage ([5]; duodenum, 15 min): 93.61 ± 0.59%
Remaining dosage ([5]; duodenum, 30 min): 89.22 ± 1.18%
Remaining dosage ([5]; duodenum, 45 min): 79.11 ± 0.58%
Remaining dosage ([5]; duodenum, 60 min): 69.18 ± 1.92%
Remaining dosage ([5]; duodenum, 75 min): 61.93 ± 1.54%
Remaining dosage ([5]; duodenum, 90 min): 54.95 ± 0.33%
Remaining dosage ([5]; duodenum, 105 min): 45.36 ± 1.72%
Remaining dosage ([5]; duodenum, 120 min): 42.13 ± 0.88%
Ka (absorption rate constant) ([5]; ileum): 0.47 ± 0.0208 min⁻¹
Remaining dosage ([5]; ileum, 15 min): 93.68 ± 0.37%
Remaining dosage ([5]; ileum, 30 min): 89.84 ± 0.89%
Remaining dosage ([5]; ileum, 45 min): 82.04 ± 1.06%
Remaining dosage ([5]; ileum, 60 min): 72.17 ± 1.08%
Remaining dosage ([5]; ileum, 75 min): 64.11 ± 1.25%
Remaining dosage ([5]; ileum, 105 min): 51.48 ± 1.18%
Remaining dosage ([5]; ileum, 120 min): 45.11 ± 3.27%
Ka (absorption rate constant) ([5]; jejunum): 0.47 ± 0.0088 min⁻¹
Remaining dosage ([5]; jejunum, 15 min): 94.43 ± 2.05%
Remaining dosage ([5]; jejunum, 30 min): 90.52 ± 0.80%
Remaining dosage ([5]; jejunum, 45 min): 87.97 ± 0.43%
Remaining dosage ([5]; jejunum, 60 min): 77.07 ± 0.97%
Remaining dosage ([5]; jejunum, 75 min): 70.44 ± 0.82%
Remaining dosage ([5]; jejunum, 90 min): 62.99 ± 0.92%
Remaining dosage ([5]; jejunum, 105 min): 54.99 ± 0.74%
Remaining dosage ([5]; jejunum, 120 min): 46.26 ± 0.94%
SMILES: COc1cc(/C=C/C(=O)CC(=O)/C=C/c2ccc(O)c(OC)c2)ccc1O [CUR, Curcumin]
Drug Intake (single replicates) (Caco-2 cells; per mg protein): 42.03 µg/mg and 44.28 µg/mg and 45.46 µg/mg
Plasma concentrations as share of the administered dose (oral bioavailability) [6]: ~1%
